# According to article PMC2690590, “Functional recombinant MHC class II molecules and high-throughput peptide-binding assays” (Immunome Research, 2009):
# Where no end group is shown, it is not given here.
# Key:
# [1] = molecular target: T1, DR3 (DRA*0101/DRB1*0301) (Homo sapiens, UniProt P01903+P01911, A100K/A102G/A103R/A169T/F55Y/I96L/K41T/L162R/M171V/P40S/Q125H/Q178H/Q39Y/R42S/S66N/T106N/T262R/W38E/Y61H); assay: Direct LOCI peptide-MHC-II binding assay, DR3
# T1 construct: DRA*01011-181LZFos; DRB1*03011-190LZJunBSP; made in house
# [2] = molecular target: T2, DRB3*0301 (DRA*0101/DRB3*0301) (Homo sapiens, UniProt P01903+P79483, A169T/A212P/D57E/G115V/L67V/Q178H/R103Q/R40L/Y55F); assay: Direct LOCI peptide-MHC-II binding assay, DRB3*0301
# T2 construct: DRA*01011-181LZFos; DRB3*03011-190LZJunBSP; made in house
# [3] = molecular target: DP401 (DPA1*0103/DPB1*0401) (Homo sapiens, UniProt P04440+P20036); assay: Direct LOCI peptide-MHC-II binding assay, DP401
# [4] = molecular target: T3, DR4 (DRA*0101/DRB1*0401) (Homo sapiens, UniProt P01903+P01911, A100K/A169T/F76Y/I96L/K127E/L162R/M171V/N62H/P40V/Q125Y/R42H/S133A/S149N/S66Y/V115G/V209L/W38E); assay: Direct LOCI peptide-MHC-II binding assay, DR4
# T3 construct: DRA*01011-181LZFos; DRB1*04011-190LZJunBSP; made in house
# [5] = molecular target: T4, DRB1*0813 (DRA*0101/DRB1*0813) (Homo sapiens, UniProt P01903+P01911, A100R/A103L/A169T/F76Y/H45Y/I96L/K41T/L162R/M171V/P40S/Q125H/Q178H/Q39Y/Q99D/R218S/R42G/S66Y/V115G/W38E); assay: Direct LOCI peptide-MHC-II binding assay, DRB1*0813
# T4 construct: DRA*01011-181LZFos; DRB1*08131-190LZJunBSP; made in house
# Chain of DP401 (DPA1*0103/DPB1*0401) (P20036 with tags, fused parts or gaps C154S): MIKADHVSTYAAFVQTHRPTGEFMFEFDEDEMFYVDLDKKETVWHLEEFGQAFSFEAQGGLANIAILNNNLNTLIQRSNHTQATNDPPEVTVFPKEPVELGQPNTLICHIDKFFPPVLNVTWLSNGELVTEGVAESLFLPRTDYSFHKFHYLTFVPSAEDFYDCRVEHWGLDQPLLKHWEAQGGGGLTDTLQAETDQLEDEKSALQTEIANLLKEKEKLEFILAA
# Chain of DP401 (DPA1*0103/DPB1*0401) (as listed by the source): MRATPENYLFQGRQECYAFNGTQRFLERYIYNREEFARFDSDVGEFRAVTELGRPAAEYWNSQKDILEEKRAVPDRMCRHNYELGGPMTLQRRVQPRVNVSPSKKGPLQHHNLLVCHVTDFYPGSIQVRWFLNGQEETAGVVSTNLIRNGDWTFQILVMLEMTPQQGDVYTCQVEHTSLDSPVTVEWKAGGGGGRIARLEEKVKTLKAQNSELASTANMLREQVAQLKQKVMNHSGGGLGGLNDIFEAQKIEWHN
Compound,Kd [1] [µM],Kd [2] [µM],Kd [3] [µM],Kd [4] [µM],Kd [5] [µM]
WMARRHAER [Brucella],> 5,> 5,> 5,> 5,–
CSCC[C@H](NC(=O)[C@@H](N)Cc1ccccc1)C(=O)N[C@@H](CO)C(=O)N[C@@H](CCCNC(=N)N)C(=O)N[C@@H](CCCCN)C(=O)N[C@@H](CC(C)C)C(=O)N[C@@H](Cc1c[nH]cn1)C(=O)N[C@@H](CCCNC(=N)N)C(=O)N[C@@H](Cc1ccc(O)cc1)C(=O)O [Hantaan],0.279,–,> 5,> 5,0.021
